Experimental data taken from patent US6967196B1, “Sulfonamide compounds and uses thereof” (Bristol-Myers Squibb Company, priority 1999, dated 2005).
Structures can show the parent of a compound that is named as a salt. Where two headings read alike, the source gives them in different places. Each block holds one molecule with its values, some of them ahead of it.

Tested on: amyloid β production in transfected H4 (human neuroglioma) cells stably expressing APP constructs
Assay: In vitro cell-based assay of inhibitors of amyloid β production (ELISA)
Details: amyloid β in medium by ELISA
Outline: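 Sandwich ELISA read-out: Aβ in conditioned medium captured via C-terminal epitope mAb, detected with N-terminus-specific rabbit polyclonal, quantified from a standard curve. Compounds 10-100 μM, ~16 h exposure. Active = ≥50% inhibition vs control without significant cytotoxicity; dose-response follows.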

[1] = Homo sapiens, 16 h, transfected H4 cells stably expressing APP, approximately 16 hours incubation, read-out: ACTIVITY (IC50, inhibition of amyloid β production)
[2] = Homo sapiens, 16 h, transfected H4 cells expressing APP, approximately 16 hours incubation, read-out: ACTIVITY (IC50, inhibition of amyloid β production)
[3] = transfected H4 cells stably expressing APP, approx. 16 h incubation, read-out: ACTIVITY (IC50, inhibition of amyloid β production)
[4] = transfected H4 cells stably expressing APP, approximately 16 hours incubation, read-out: ACTIVITY (IC50, inhibition of amyloid β production)
[5] = transfected H4 cells stably expressing APP, approximately 16 hours incubation, Table B, read-out: ACTIVITY (IC50, inhibition of amyloid β production)
[6] = Homo sapiens, 16 h, transfected H4 cells stably expressing APP, approx. 16 h incubation, read-out: ACTIVITY (IC50, inhibition of amyloid β production)
[7] = transfected H4 cells stably expressing APP constructs, approximately 16 hours incubation, read-out: ACTIVITY (IC50, inhibition of amyloid β production)
[8] = Table B, transfected H4 cells stably expressing APP, approximately 16 hours incubation, read-out: ACTIVITY (inhibitory concentration IC50, inhibition of amyloid β production)

IC50 [1]: > 500 nM
Molecule: O=S(=O)(c1ccc(Cl)cc1)N(Cc1ccccc1OCCC1CCCN1)c1ccccc1 (stereo not shown) [Example 963, 4-chloro-N-phenyl-N-{2-[2-(2-pyrrolidinyl)ethoxy]benzyl}benzenesulfonamide hydrochloride]

IC50 [2]: > 500 nM
Molecule: C[C@H](C(=O)N[C@H](CO)Cc1ccccc1)N(c1cc(Cl)ccc1F)S(=O)(=O)c1ccc(Cl)cc1 [Example 1355]

Molecule: CC(C)C[C@H](NC(=O)CCC[C@@H](C)N(c1cc(Cl)ccc1F)S(=O)(=O)c1ccc(Cl)cc1)C(=O)O [Example 546, (R)-4-Chloro-N-(5-chloro-2-fluorophenyl)-N-[5-[N-(S)-[1-(carboxy)-3-methylbutyl]amino]-1-methyl-5-oxopentyl]benzenesulfonamide]
IC50 [3]: 100 to 500 nM

IC50 [1]: > 500 nM
Molecule: COc1ccc(C(=O)N2CCCCC2CCOc2ccccc2CN(c2cc(F)ccc2F)S(=O)(=O)c2ccc(Cl)cc2)cc1OC (stereo not shown) [Example 890, 4-chloro-N-(2,5-difluorophenyl)-N-(2-{2-[1-(3,4-dimethoxybenzoyl)-2-piperidinyl]ethoxy}benzyl)benzenesulfonamide]

IC50 [4]: 100 to 500 nM
Molecule: 3-bromo-N-{3-[2-(1-{[(4-chlorophenyl)sulfonyl]-2,5-difluoroanilino}ethyl)phenoxy]propyl}-N-methylbenzenesulfonamide [Example 806]

IC50 [4]: > 500 nM
Molecule: C[C@H](c1ccc(F)cc1CCCC(=O)O)N(c1cc(F)ccc1F)S(=O)(=O)c1ccc(Cl)cc1 [Example 1080, 4-[2-((1R)-1-{[(4-chlorophenyl)sulfonyl]-2,5-difluoroanilino}ethyl)-5-fluorophenyl]butanoic acid]

IC50 [5]: 100 to 500 nM
Molecule: COC(=O)CCS(=O)(=O)CCc1cc(F)ccc1[C@@H](C)N(c1cc(F)ccc1F)S(=O)(=O)c1ccc(Cl)cc1 [Example 474, Methyl 3-({2-[2-((1R)-1-{[(4-chlorophenyl)sulfonyl]-2,5-difluoroanilino}ethyl)-5-fluorophenyl]ethyl}sulfonyl)propanoate]

IC50 [2]: > 500 nM
Molecule: C[C@H](C(=O)NCc1c(F)cccc1F)N(c1cc(Cl)ccc1F)S(=O)(=O)c1ccc(Cl)cc1 [Example 1327]

IC50 [5]: 50 to 100 nM
Molecule: COC(=O)C(N)CS(=O)(=O)Cc1cc(F)ccc1[C@@H](C)N(c1cc(F)ccc1F)S(=O)(=O)c1ccc(Cl)cc1 (stereo partly drawn) [Example 470, Methyl 2-amino-3-{[2-(1R)-1-{[(4-chlorophenyl)sulfonyl]-2,5-difluoroanilino}ethyl)-5-fluorobenzyl]sulfonyl}propanoate Hydrochloride]

IC50 [6]: 100 to 500 nM
Molecule: COc1ccc([S+]([O-])CCCOc2ccccc2CN(c2cc(F)ccc2F)S(=O)(=O)c2ccc(Cl)cc2)cc1 (stereo not shown) [Example 803, 4-chloro-N-(2,5-difluorophenyl)-N-(2-{3-[(4-methoxyphenyl)sulfinyl]propoxy}benzyl)benzenesulfonamide]

Molecule: CSC1CCN(CCC[C@@H](C)N(c2cc(Cl)ccc2Cl)S(=O)(=O)c2ccc(Cl)cc2)C1 (stereo partly shown) [Example 1148]
IC50 [7]: 100 to 500 nM

Molecule: O=S(=O)(c1ccc(Cl)cc1)N(Cc1ccccc1OCCCN1CC=CCC1)c1ccccc1 [Example 749, 4-chloro-N-{2-[3-(3,6-dihydro-1(2H)-pyridinyl)propoxy]benzyl}-N-phenylbenzenesulfonamide hydrochloride]
IC50 [6]: 100 to 500 nM

Molecule: CC(C)C[C@H](NC(=O)CCCC[C@@H](C)N(c1cc(Cl)ccc1F)S(=O)(=O)c1ccc(Cl)cc1)C(=O)O [Example 1259, (R)-4-Chloro-N-(5-chloro-2-fluorophenyl)-N-[6-[N-(S)-[1-(carboxy)-3-methylbutyl]amino]-1-methyl-6-oxohexyl]benzenesulfonamide]
IC50 [7]: ≤ 25 nM

IC50 [8]: ≤ 25 nM
Molecule: CC(=O)OCc1ccc(Cl)cc1N([C@H](C)CCCS(=O)(=O)O)S(=O)(=O)c1ccc(Cl)cc1 [Example 11]

Molecule: O=S(=O)(Cc1ccccc1)N(Cc1ccccc1OCCCN1CCCCC1)c1cc(Cl)ccc1Cl [Example 261, N-(2,5-dichlorophenyl)(phenyl)-N-{2-[3-(1-piperidinyl)propoxy]benzyl}methanesulfonamide Hydrochloride]
IC50 [8]: 25 to 50 nM

IC50 [3]: 100 to 500 nM
Molecule: N-{3-[2-(1-{[(4-chlorophenyl)sulfonyl]-2,5-difluoroanilino}ethyl)phenoxy]propyl}-2-phenylcyclopropanecarboxamide [Example 789]

Molecule: O=C1CCN(CCCOc2ccccc2CN(c2ccccc2)S(=O)(=O)c2ccc(Cl)cc2)CC1 [Example 307, 4-Chloro-N-{2-[3-(4-oxo-1-piperidinyl)propoxy]benzyl}-N-phenylbenzenesulfonamide Hydrochloride]
IC50 [5]: 50 to 100 nM

IC50 (Homo sapiens, 16 h, transfected H4 cells stably expressing APP constructs, approximately 16 hours incubation, read-out: ACTIVITY (IC50, inhibition of amyloid β production)): ≤ 25 nM
Molecule: C[C@H](COC(=O)N1CCCC1)N(c1cc(Cl)ccc1F)S(=O)(=O)c1ccc(Cl)cc1 [Example 1243, 4-Chloro-N-(2-fluoro-5-chlorophenyl)-N-[2-[[[pyrrolidin-1-yl]carbonyl]oxy]-(R)-1-methylethyl]benzenesulfonamide]

IC50 [3]: 100 to 500 nM
Molecule: 2-bromo-N-{3-(2-({[(4-chlorophenyl)sulfonyl]-2,5-difluoroanilino}methyl)phenoxy]propyl}-N-methylbenzamide [Example 641]

IC50 [1]: > 500 nM
Molecule: O=S(=O)(c1ccc(Cl)cc1)N(Cc1ccccc1CCCCCN1CCCCC1)c1ccccc1 [Example 978, 4-chloro-N-phenyl-N-{2-[5-(1-piperidinyl)pentyl]benzyl}benzenesulfonamide hydrochloride]

IC50 [5]: 100 to 500 nM
Molecule: CNC(=O)CCCc1cc(F)ccc1[C@@H](C)N(c1cc(F)ccc1F)S(=O)(=O)c1ccc(Cl)cc1 [Example 498, 4-[2-((1R)-1-{[(4-chlorophenyl)sulfonyl]-2,5-difluoroanilino}ethyl)-5-fluorophenyl]-N-methylbutanamide]

IC50 [1]: > 500 nM
Molecule: C[C@H](c1ccc(F)cc1CCCC(=O)NN(C)C)N(c1cc(F)ccc1F)S(=O)(=O)c1ccc(Cl)cc1 [Example 1078, 4-chloro-N-(2,5-difluorophenyl)-N-((1R)-1-{2-[4-(2,2-dimethylhydrazino)-4-oxobutyl]-4-fluorophenyl}ethyl)benzenesulfonamide]

IC50 [4]: > 500 nM
Molecule: (2R)-2-{[(4-chlorophenyl)sulfonyl]-2,5-difluoroanilino}propyl isonicotinate [Example 1057]

IC50 (Homo sapiens, 16 h, transfected H4 cells stably expressing APP, approximately 16 hours incubation, Table B, read-out: ACTIVITY (IC50, inhibition of amyloid β production)): 50 to 100 nM
Molecule: C[C@H](c1ccc(F)cc1CN1CCS(=O)(=O)CC1)N(c1cc(F)ccc1F)S(=O)(=O)c1ccc(Cl)cc1 [Example 405]

IC50 [3]: 100 to 500 nM
Molecule: 2-((1R)-1-{[(4-chlorophenyl)sulfonyl]-2,5-difluoroanilino}ethyl)benzyl sec-butylcarbamate [Example 758]

IC50 [3]: 100 to 500 nM
Molecule: S-methyl 2-[2-(1-{[(4-chlorophenyl)sulfonyl]-2,5-difluoroanilino}ethyl)phenoxy]ethyl(ethyl)thiocarbamate [Example 771]

IC50 [6]: 100 to 500 nM
Molecule: CCN(CCOc1ccccc1C(C)N(c1cc(F)ccc1F)S(=O)(=O)c1ccc(Cl)cc1)C(=O)NC(C)C (stereo not shown) [Example 725, 4-chloro-N-(2,5-difluorophenyl)-N-{1-[2-(2-{ethyl[(isopropylamino)carbonyl]amino}ethoxy)phenyl]ethyl}benzenesulfonamide]

Molecule: COC(=O)[C@@H](N)CS(=O)(=O)CCCc1cc(F)ccc1[C@@H](C)N(c1cc(F)ccc1F)S(=O)(=O)c1ccc(Cl)cc1 [Example 487, Methyl (2R)-2-amino-3-({3-[2-((1R)-1-{[(4-chlorophenyl)sulfonyl]-2,5-difluoroanilino}ethyl)-5-fluorophenyl]propyl}sulfonyl)propanoate Hydrochloride]
IC50 [5]: 100 to 500 nM

IC50 [2]: > 500 nM
Molecule: C[C@H](C(=O)NCCN1CCOCC1)N(c1cc(Cl)ccc1F)S(=O)(=O)c1ccc(Cl)cc1 [Example 1301]

IC50 [3]: 100 to 500 nM
Molecule: N-{3-[2-(1-{[(4-chlorophenyl)sulfonyl]-2,5-difluoroanilino}ethyl)phenoxy]propyl}-2,4,5-trifluoro-N-methylbenzamide [Example 710]

Molecule: CC[S+]([O-])CCC[C@@H](C)N(c1cc(F)ccc1F)S(=O)(=O)c1ccc(Cl)cc1 (stereo partly drawn) [Example 1174, 4-chloro-N-[2,5-difluorophenyl]-N-[1(R)-methyl-(4-ethylsulfinyl)butyl]benzenesulfonamide]
IC50 [7]: ≤ 25 nM

IC50 [4]: > 500 nM
Molecule: methyl 3-[2-((1R)-1-{[(4-chlorophenyl)sulfonyl]-2,5-difluoroanilino}ethyl)-5-fluorophenyl]propanoate [Example 1065]

IC50 [2]: 100 to 500 nM
Molecule: C[C@H](C(=O)N[C@H]1CC[C@H](O)CC1)N(c1cc(Cl)ccc1F)S(=O)(=O)c1ccc(Cl)cc1 [Example 1338]

IC50 [2]: 100 to 500 nM
Molecule: CC1CCCC(NC(=O)[C@@H](C)N(c2cc(Cl)ccc2F)S(=O)(=O)c2ccc(Cl)cc2)C1 (stereo partly shown) [Example 1347]
